Test results: patent US20220081415A1, “Amino Acid Derivatives for the Treatment of Inflammatory Diseases” (The Roskamp Institute, priority 2019, published 2022)
Structures can show the parent of a compound that is named as a salt.

System: NF-kB activation induced by TNFα
Experiment: TNFα Luciferase assay: inhibition of NF-kB activation induced by TNFα in HEK293/NF-kB luciferase cells
Assay type: cell-based
Conditions: Homo sapiens, 4 h, 25 ng/ml of TNF-α for four hours, quadruplicate, read-out: IC50, concentration at which NF-kB activation was reduced by 50%
Method: Determination of Inhibition of NF-kB Activation Induced by TNFα . . . In Vitro Assay
The ability of a compound disclosed herein to inhibit NFkB activation induced by TNFα was determined using the TNFα Luciferase assay. The HEK293/NF-kB luciferase cell line was obtained by cotransfection of pNFkB-luc vector with pHyg (Panomics, CA, USA) followed by hygromycin selection. HEK293/NFkB Luciferase cells were grown in DMEM medium supplemented with 10% fetal bovine serum, 100 U/ml of penicillin, 100 ng/ml of streptomycin/Fungizone, and 100 μg/ml of hygromycin B as the selecting agent. HEK293 NFkB Luciferase cells were grown in T75 flasks (Nunc™ Cell Culture Treated EasYFlasks™) in a cell culture incubator at 37° C. and 5% CO2.
Confluent T75 cell culture flasks (approximately 8-10 million of cells per flask) were washed with 10 ml of sterile PBS (without calcium and magnesium) under a biosafety cabinet. After aspiration of the PBS with a sterile glass pipette, the layer of cells (for each T75 flask) was covered with 1 ml of TrypLE™ Express without phenol red (Gibco) at room temperature. After one minute of incubation, HEK293 were mechanically resuspended in the TrypLE by tapping the side of the flask. The cells were then resuspended with 10 ml of pre-warmed complete culture medium and transferred to a conical tube. Cells were centrifuged for 5 minutes at 4000 rpm (1000 g) at room temperature. The cellular pellet was resuspended with 24 ml of pre-warmed cell culture media and […] of cell suspension (approximately 80,000 cells per well) was plated per well in 96-well cell culture plates (Costar #3599, Corning, N.Y., USA) using a multichannel pipette and reversed pipetting to prevent air bubble formation. After plating, the cells were maintained overnight in the cell culture incubator before being treated. For each 96 well cell culture plate, 8 wells were used as “control wells” (only culture medium added) and to 8 wells only TNFα was added. The NF-kB Luciferase reporter cell line was challenged with 25 ng/ml of TNF-α for four hours in the presence and absence (control conditions) of a dose range of the different compounds to be tested. For each compound, a dose range of concentrations was tested in quadruplicate and used to determine an IC50.
Luciferase activity was monitored using the Luc-Screen® Extended-Glow Luciferase Reporter Gene Assay System by chemoluminescence according to the instruction of the manufacturer (Invitrogen) and a BioTek Synergy HT plate reader (BioTek Instruments, VT, USA).

IC50	SMILES
212 nM	NCC(=O)Nc1cccc(C(=O)N[C@@H](Cc2ccccc2)C(=O)N2CC=CCC2c2cccnc2)c1 (stereo partly drawn) [Compound 53, 3-(2-aminoacetamido)-N-((2S)-1-oxo-3-phenyl-1-(6-(pyridin-3-yl)-5,6-dihydropyridin-1(2H)-yl)propan-2-yl)benzamide hydrochloride]
1600 nM	COc1cccc(C(=O)N[C@@H](Cc2ccccc2)C(=O)N2CC=CCC2c2cccnc2)c1 (stereo partly drawn) [Compound 35, 3-methoxy-N-((2S)-1-oxo-3-phenyl-1-(6-(pyridin-3-yl)-5,6-dihydropyridin-1(2H)-yl)propan-2-yl)benzamide]
1700 nM	CCCC(=O)Nc1cccc(C(=O)NC(Cc2ccccc2)C(=O)N2CC=CCC2c2cc3ccccc3nc2Cl)c1 (stereo not shown) [Compound 67, 3-butyramido-N-(1-(2-(2-chloroquinolin-3-yl)-3,6-dihydropyridin-1(2H)-yl)-1-oxo-3-phenylpropan-2-yl)benzamide]
4000 nM	COc1ccc(Cl)c(C(=O)N[C@H](Cc2ccccc2)C(=O)N2CC=CCC2c2cccnc2)c1 (stereo partly drawn) [Compound 27, 2-chloro-5-methoxy-N-((2R)-1-oxo-3-phenyl-1-(6-(pyridin-3-yl)-5,6-dihydropyridin-1(2H)-yl)propan-2-yl)benzamide]
186 nM	NCCC(=O)Nc1cccc(C(=O)N[C@@H](Cc2ccccc2)C(=O)N2CC=CCC2c2cccnc2)c1 (stereo partly drawn) [Compound 54, 3-(3-aminopropanamido)-N-((2S)-1-oxo-3-phenyl-1-(6-(pyridin-3-yl)-5,6-dihydropyridin-1(2H)-yl)propan-2-yl)benzamide hydrochloride]
7000 nM	O=C(NC(Cc1ccccc1)C(=O)N1CC=CCC1c1cccnc1)c1cccc(Cl)c1 (stereo not shown) [Compound 18, 3-chloro-N-(1-oxo-3-phenyl-1-(6-(pyridin-3-yl)-5,6-dihydropyridin-1(2H)-yl)propan-2-yl)benzamide]
75.4 nM	O=C(N[C@@H](Cc1ccccc1)C(=O)N1CC=CCC1c1cccnc1)c1cccc(NC(=O)C2CCC2)c1 (stereo partly drawn) [Compound 45, 3-(cyclobutanecarboxamido)-N-((2S)-1-oxo-3-phenyl-1-(6-(pyridin-3-yl)-5,6-dihydropyridin-1(2H)-yl)propan-2-yl)benzamide]
5400 nM	O=C(NC(Cc1ccccc1)C(=O)N1CC=CCC1c1cccnc1)c1cccc(F)c1 (stereo not shown) [Compound 19, 3-fluoro-N-(1-oxo-3-phenyl-1-(6-(pyridin-3-yl)-5,6-dihydropyridin-1(2H)-yl)propan-2-yl)benzamide]
704 nM	CCCC(=O)Nc1cccc(C(=O)N[C@@H](Cc2ccc3ccccc3c2)C(=O)N2CC=CCC2c2cccnc2)c1 (stereo partly drawn) [Compound 65, 3-butyramido-N-((2S)-3-(naphthalen-2-yl)-1-oxo-1-(6-(pyridin-3-yl)-5,6-dihydropyridin-1(2H)-yl)propan-2-yl)benzamide]
2500 nM	COc1cccc(C(=O)N[C@H](Cc2ccccc2)C(=O)N2CC=CCC2c2cccnc2)c1 (stereo partly drawn) [Compound 25, 3-methoxy-N-((2R)-1-oxo-3-phenyl-1-(6-(pyridin-3-yl)-5,6-dihydropyridin-1(2H)-yl)propan-2-yl)benzamide]
170 nM	NCCCC(=O)Nc1cccc(C(=O)N[C@@H](Cc2ccccc2)C(=O)N2CC=CCC2c2cccnc2)c1 (stereo partly drawn) [Compound 55, 3-(4-aminobutanamido)-N-((2S)-1-oxo-3-phenyl-1-(6-(pyridin-3-yl)-5,6-dihydropyridin-1(2H)-yl)propan-2-yl)benzamide hydrochloride]
2500 nM	COc1cc(C(=O)N[C@@H](Cc2ccccc2)C(=O)N2CC=CCC2c2cccnc2)ccc1F (stereo partly drawn) [Compound 34, 4-fluoro-3-methoxy-N-((2S)-1-oxo-3-phenyl-1-(6-(pyridin-3-yl)-5,6-dihydropyridin-1(2H)-yl)propan-2-yl)benzamide]
8600 nM	COc1ccccc1C(=O)N[C@H](Cc1ccccc1)C(=O)N1CC=CCC1c1cccnc1 (stereo partly drawn) [Compound 32, 2-methoxy-N-((2R)-1-oxo-3-phenyl-1-(6-(pyridin-3-yl)-5,6-dihydropyridin-1(2H)-yl)propan-2-yl)benzamide]
216 nM	CCCCNc1cccc(C(=O)N[C@@H](Cc2ccccc2)C(=O)N2CC=CCC2c2cccnc2)c1 (stereo partly drawn) [Compound 60, 3-(butylamino)-N-((2S)-1-oxo-3-phenyl-1-(6-(pyridin-3-yl)-5,6-dihydropyridin-1(2H)-yl)propan-2-yl)benzamide]
225000 nM	O=C(C(Cc1ccccc1)N1C(=O)c2ccccc2C1=O)N1CC=CCC1c1cccnc1 (stereo not shown) [Compound 7, 2-(1-oxo-3-phenyl-1-(6-(pyridin-3-yl)-5,6-dihydropyridin-1(2H)-yl)propan-2-yl)isoindoline-1,3-dione]
58.4 nM	CCCC(=O)Nc1cccc(C(=O)N[C@@H](Cc2ccccc2)C(=O)N2CCCCC2c2cccnc2)c1 (stereo partly drawn) [Compound 63, 3-butyramido-N-((2S)-1-oxo-3-phenyl-1-(2-(pyridin-3-yl)piperidin-1-yl)propan-2-yl)benzamide]
58.5 nM	O=C(N[C@@H](Cc1ccccc1)C(=O)N1CC=CCC1c1cccnc1)c1cccc(NC(=O)C2CCCC2)c1 (stereo partly drawn) [Compound 46, 3-(cyclopentanecarboxamido)-N-((2S)-1-oxo-3-phenyl-1-(6-(pyridin-3-yl)-5,6-dihydropyridin-1(2H)-yl)propan-2-yl)benzamide]
850 nM	CCCC(=O)Nc1cccc(C(=O)NC(C)C(=O)N2CC=CCC2c2cnc3ccccc3c2)c1 (stereo not shown) [Compound 68, 3-butyramido-N-(1-oxo-1-(2-(quinolin-3-yl)-3,6-dihydropyridin-1(2H)-yl)propan-2-yl)benzamide]
129 nM	CC(C)(C)C(=O)Nc1cccc(C(=O)N[C@@H](Cc2ccccc2)C(=O)N2CC=CCC2c2cccnc2)c1 (stereo partly drawn) [Compound 43, N-((2S)-1-oxo-3-phenyl-1-(6-(pyridin-3-yl)-5,6-dihydropyridin-1(2H)-yl)propan-2-yl)-3-pivalamidobenzamide]
174 nM	O=C(N[C@@H](Cc1ccccc1)C(=O)N1CC=CCC1c1cccnc1)c1ccc2ccccc2n1 (stereo partly drawn) [Compound 49, N-((2S)-1-oxo-3-phenyl-1-(6-(pyridin-3-yl)-5,6-dihydropyridin-1(2H)-yl)propan-2-yl)quinoline-2-carboxamide]
4500 nM	COc1ccc(C(=O)NC(Cc2ccccc2)C(=O)N2CC=CCC2c2cccnc2)cc1OC (stereo not shown) [Compound 21, 3,4-dimethoxy-N-(1-oxo-3-phenyl-1-(6-(pyridin-3-yl)-5,6-dihydropyridin-1(2H)-yl)propan-2-yl)benzamide]
131 nM	O=C(N[C@@H](Cc1ccccc1)C(=O)N1CC=CCC1c1cccnc1)c1cnccn1 (stereo partly drawn) [Compound 50, N-((2S)-1-oxo-3-phenyl-1-(6-(pyridin-3-yl)-5,6-dihydropyridin-1(2H)-yl)propan-2-yl)pyrazine-2-carboxamide]
170000 nM	C[C@H](NC(=O)c1ccc(Cl)cc1)C(=O)N1CC=CCC1c1cccnc1 (stereo partly drawn) [Compound 14, 4-chloro-N-((2S)-1-oxo-1-(6-(pyridin-3-yl)-5,6-dihydropyridin-1(2H)-yl)propan-2-yl)benzamide]
1500 nM	CCOc1cccc(C(=O)NC(Cc2ccccc2)C(=O)N2CC=CCC2c2cccnc2)c1 (stereo not shown) [Compound 20, 3-ethoxy-N-(1-oxo-3-phenyl-1-(6-(pyridin-3-yl)-5,6-dihydropyridin-1(2H)-yl)propan-2-yl)benzamide]
708 nM	CCCCn1cccc1C(=O)N[C@@H](Cc1ccccc1)C(=O)N1CC=CCC1c1cccnc1 (stereo partly drawn) [Compound 61, 1-butyl-N-((2S)-1-oxo-3-phenyl-1-(6-(pyridin-3-yl)-5,6-dihydropyridin-1(2H)-yl)propan-2-yl)-1H-pyrrole-2-carboxamide]
125000 nM	COc1cccc(C(=O)N[C@@H](C)C(=O)N2CC=CCC2c2cccnc2)c1 (stereo partly drawn) [Compound 10, 3-methoxy-N-((2S)-1-oxo-1-(6-(pyridin-3-yl)-5,6-dihydropyridin-1(2H)-yl)propan-2-yl)benzamide]
285 nM	CCCC(=O)Nc1cccc(C(=O)N[C@@H](Cc2cccc3ccccc23)C(=O)N2CC=CCC2c2cccnc2)c1 (stereo partly shown) [Compound 64, 3-butyramido-N-((2 S)-3-(naphthalen-1-yl)-1-oxo-1-(6-(pyridin-3-yl)-5,6-dihydropyridin-1 (2H)-yl)propan-2-yl)benzamide]
114 nM	O=C(N[C@@H](Cc1ccccc1)C(=O)N1CC=CCC1c1cccnc1)c1cccnc1 (stereo partly drawn) [Compound 51, N-((2S)-1-oxo-3-phenyl-1-(6-(pyridin-3-yl)-5,6-dihydropyridin-1(2H)-yl)propan-2-yl)nicotinamide]
